According to patent US8637522B2, “Pyrazinone derivatives as insulin secretion stimulators, methods for obtaining them and use thereof for the treatment of diabetes” (Merck Patent GmbH, priority 2008, dated 2014):

Columns and labels:
INS-1 cells = assay: Insulin secretion assay in INS-1 cells (glucose at 4.2 mM); format: cell-based; details: Rattus norvegicus, INS1, glucose 4.2 mM, 1 h incubation; for activity at 10 µM: compound 10 μM, read-out: Insulin secretion, % of ctrl at 10 μM; for activity at 50 µM: compound 50 μM, read-out: Insulin secretion, % of ctrl at 50 μM
Description: Culture of Pancreatic INS-1 Cells
INS-1 cells were cultured in complete medium, RPMI 1640 containing 1 mM sodium pyruvate, 50 μM 2-mercaptoethanol, 2 mM glutamine, 10 mM HEPES, 100 IU/mL penicillin, and 100 μg/mL streptomycin (CM), supplemented with 10 mM glucose, and 10% (vol/vol) heat-inactivated fetal calf serum (FCS), as described by Asfari et al. (Endocrinology 130: 167-178, 1992).
INS-1 cells were plated and cultured in 48-well plates. After 2 days of culture, the medium was removed and cells were cultured for 24 h with a medium change to 5 mM glucose, 1% FCS. The cells were then washed with Krebs-Ringer Bicarbonate HEPES buffer (KRBH; 135 mM NaCl; 3.6 mM KCl; 5 mM NaHCO3; 0.5 mM NaH2PO4;
0.5 mM MgCl2; 1.5 mM CaCl2 and 10 mM HEPES; pH 7.4) 0.1% BSA containing 2.8 mM glucose and preincubated for 30 min at 37° C. in the same buffer. The cells were then washed twice and incubated for 1 h in KRBH 0.1% BSA containing 4.2 mM glucose and different concentrations of the tested molecule. Insulin concentration in the collected supernatants was measured with ELISA using rat insulin antibody (Insulin Rat Elit PLUS, cat. ref 10-1145-01).
Insulin secretion results are expressed in % of control (glucose 4.2 mM).
Insulin Secretion in INS-1 Cells (Glucose at 4.2 mM)

[1] = tested on: diabetic N0STZ rat islets; assay: Insulin secretion in diabetic N0STZ rat islets; format: cell-based; details: 90 min, mean ± SEM
Description: Insulin Secretion in Diabetic N0STZ Rat Islets. Materials and Methods. Islets Isolation and Treatments.
14±3 weeks non-fasted N0STZ (PORTHA et al., 1974) male rats (Charles Rivers-Domaine des Oncins, I'Arbresle, France) were anesthetised with sodium pentobarbital (Nembutal®: 45 mg/kg in 5 ml/kg administered intra peritoneally) and body temperature was maintained with a heat lamp.
Rat pancreatic islets of Langerhans were isolated from the pancreas of 8 rats by collagenase P (Boehringer, Meylan, France) digestion. Islets were purified by sedimentation in Hanks balanced salt solution [NaCl (137 mM); KCl (5.36 mM); MgSO4, 7H2O (0.81 mM); Na2HPO4, 12H2O (0.34 mM); KH2PO4 (0.44 mM); CaCl2, 2H2O (1.26 mM); NaHCO3 (4.17 mM)] followed by Ficoll gradient separation.
Islets were then hand-picked under stereoscopic microscope and batches of 3 islets were incubated for 90 minutes at 37° C. with continuous shaking under a humidified condition (95% O2, 5% CO2) in 1 ml of Krebs/Hepes pH 7 solution [NaCl (115 mM), NaHCO3 (24 mM), KCl (5 mM), MgCl2 (1 mM), CaCl2, 2H2O (1 mM), 0.2% of Bovine serum albumin (Fraction V, fatty acid free, Boehringer, Mannheim), 10 mM Hepes] containing the required glucose or compound concentration.
Compounds were dissolved in DMSO at 2.10-2M stock solutions. They were then diluted at the required concentration in Krebs/Hepes buffer containing the required glucose concentration.
At the end of incubation, media was collected and insulin levels were measured using ELISA (EUROBIO, Courtaboeuf, France).
Islets were hand-picked and incubated in the presence of increasing concentrations of compounds in the presence of glucose at 2.8 or 8 mM. At the end of incubation, media was collected and insulin levels were measured using ELISA method. Results are expressed as % of glucose control (2.8 or 8 mM) and represent Means±SEM.

[2] = glucose 2.8 mM, compound 10−4 M

| SMILES | activity at 10 µM (INS-1 cells) | activity at 50 µM (INS-1 cells) | melting point | also measured |
| --- | --- | --- | --- | --- |
| CCn1ccnc(S(=O)(=O)Cc2ccccc2)c1=O [Example 6, 3-benzylsulfonyl-1-ethylpyrazin-2(1H)-one] | 128% | 184% | – | – |
| CCn1ccnc(S(=O)(=O)Cc2ccc(Cl)cc2)c1=O [Example 6-2, 3-[(4-chlorobenzyl)sulfonyl]-1-ethylpyrazin-2(1H)-one] | 142% | 276% | 115 to 118 °C | – |
| CCCn1ccnc(S(=O)(=O)Cc2ccc(C)cc2)c1=O [Example 6-3, 3-[(4-methylbenzyl)sulfonyl]-1-propylpyrazin-2(1H)-one] | 144% | 207% | 128 to 130 °C | Insulin secretion, % of glucose control [1, 2]: 121 ± 7 % of glucose control; Insulin secretion, % of glucose control ([1]; glucose 8 mM, compound 10−4 M): 271 ± 5 % of glucose control; Insulin secretion, % of glucose control ([1]; glucose 8 mM, compound 10−5 M): 131 ± 5 % of glucose control; Insulin secretion, % of glucose control ([1]; glucose 8 mM, compound 10−6 M): 108 ± 5 % of glucose control; Insulin secretion, % of glucose control ([1]; glucose 8 mM, compound 10−7 M): 101 ± 6 % of glucose control |
| CCCn1ccnc(S(=O)(=O)Cc2ccc(F)cc2)c1=O [Example 6-4, 3-[(4-fluorobenzyl)sulfonyl]-1-propylpyrazin-2(1H)-one] | 142% | 203% | 123 to 125 °C | – |
| CCCn1ccnc(S(=O)(=O)Cc2ccccc2)c1=O [Example 6-5, 3-(benzylsulfonyl)-1-propylpyrazin-2(1H)-one] | – | – | 133 to 135 °C | – |
| CCn1ccnc(S(=O)(=O)Cc2ccc(Br)cc2)c1=O [Example 6-6, 1-ethyl-3-[(4-bromobenzyl)sulfonyl]pyrazin-2(1H)-one] | 164% | 362% | 135 to 138 °C | – |
| CCCn1ccnc(S(=O)(=O)Cc2ccc(Cl)cc2)c1=O [Example 10, 3-[(4-chlorobenzyl)sulfonyl]-1-propylpyrazin-2(1H)-one] | 155% | 331% | 125 to 128 °C | Insulin secretion, % of glucose control [1, 2]: 178 ± 7 % of glucose control; Insulin secretion, % of glucose control ([1]; glucose 8 mM, compound 10−4 M): 203 ± 11 % of glucose control; Insulin secretion, % of glucose control ([1]; glucose 8 mM, compound 10−5 M): 133 ± 7 % of glucose control; Insulin secretion, % of glucose control ([1]; glucose 8 mM, compound 10−6 M): 90 ± 4 % of glucose control; Insulin secretion, % of glucose control ([1]; glucose 8 mM, compound 10−7 M): 84 ± 7 % of glucose control |
| CCCCn1ccnc(S(=O)(=O)Cc2ccccc2F)c1=O [Example 10-3, 1-butyl-3-[(2-fluorobenzyl)sulfonyl]pyrazin-2(1H)-one] | 108% | 236% | – | – |
| CCCCn1ccnc(S(=O)(=O)Cc2cccc(C(F)(F)F)c2)c1=O [Example 10-4, 1-butyl-3-[(3-trifluoromethylbenzyl)sulfonyl]pyrazin-2(1H)-one] | 187% | 272% | – | – |
| CCCCn1ccnc(S(=O)(=O)Cc2ccc(Cl)cc2)c1=O [Example 10-5, 1-butyl-3-[(4-chlorobenzyl)sulfonyl]pyrazin-2(1H)-one] | 153% | 261% | – | – |
| CCCn1ccnc(S(=O)(=O)CCc2ccc(Cl)cc2)c1=O [Example 10-6] | 127% | 180% | – | – |
| CCn1ccnc(S(=O)(=O)CCOc2ccc(OC)cc2)c1=O [Example 10-7, 1-ethyl-3-{[2-(4-methoxyphenoxy)ethyl]sulfonyl}pyrazin-2(1H)-one] | – | – | 100 to 103 °C | – |
| CCn1cc(Br)nc(S(=O)(=O)Cc2ccc(Cl)cc2)c1=O [Example 13, 5-bromo-3-[(4-chlorobenzyl)sulfonyl]-1-ethylpyrazin-2(1H)-one] | – | – | 145 to 147 °C | – |
| CCn1cc(-c2ccccc2)nc(S(=O)(=O)Cc2ccc(Cl)cc2)c1=O [Example 14, 3-[(4-chlorobenzyl)sulfonyl]-1-ethyl-5-phenylpyrazin-2(1H)-one] | – | – | 146 to 148 °C | – |
| CCn1cc(-c2ccc(Cl)cc2)nc(S(=O)(=O)Cc2ccc(Cl)cc2)c1=O [Example 14-2, 3-[(4-chlorobenzyl)sulfonyl]-5-(4-chlorophenyl)-1-ethylpyrazin-2(1H)-one] | 181% | – | – | – |
| CCn1cc(Cl)nc(SCC(=O)Nc2ccccc2)c1=O [Example 17, 2-[(6-chloro-4-ethyl-3-oxo-3,4-dihydropyrazin-2-yl)thio]-N-phenylacetamide] | – | – | 156 to 158 °C | – |
| CCn1cc(Cl)nc(S(=O)(=O)CC(=O)Nc2ccccc2)c1=O [Example 18, 2-[(6-chloro-4-ethyl-3-oxo-3,4-dihydropyrazin-2-yl)sulfonyl]-N-phenylacetamide] | – | – | 178 to 180 °C | – |
| CCn1cc(Cl)nc(S(=O)(=O)CC(=O)N2CCCCC2)c1=O [Example 18-2, 5-chloro-1-ethyl-3-[(2-oxo-2-piperidin-1-ylethyl)sulfonyl]pyrazin-2(1H)-one] | 159% | 213% | – | – |
